Data from ChEMBL document CHEMBL3045623, “Pyrazole derivatives as photosynthetic electron transport inhibitors: new leads and structure-activity relationship” (J Agric Food Chem, 2005).

Target: Photosystem II protein D1 (Spinacia oleracea, UniProt P69560)
Experiment: Inhibition of photosynthetic electron transport at the PSII level in intact chloroplasts from Spinacia oleracea (spinach) leaves assessed as inhibition of in vitro activity by Hill reaction assay

In the case of Cc1cc2[nH]c(=O)s/c(=N/C3CCCCC3)n2n1, the IC50 (read-out: pIC50 (converted)) is reported as 0.21 µM.
O=c1sc(Nc2ccc(Cl)cc2)nc2[nH]ncc12 was tested, and the IC50 (read-out: IC50) was 38.5 µM.
In the case of CC/N=c1/sc(=O)[nH]c2cc(C)nn12, the IC50 (read-out: pIC50 (converted)) is reported as 2.9 µM.
Cc1c(C(=O)O)c(C(=O)NC2CC2)nn1C was tested, and the IC50 (read-out: IC50) was 1190 µM.
S=c1sc(Nc2ccccc2Cl)nc2[nH]ncc12 was tested, and the IC50 (read-out: IC50) was 43.1 µM.
O=c1sc(Nc2cccc(Cl)c2)nc2[nH]ncc12 showed an IC50 (read-out: IC50) of 48 µM.
For CCNc1nc2[nH]ncc2c(=S)s1, the IC50 (read-out: IC50) was 10.7 µM.
For Cc1cc2[nH]c(=O)s/c(=N/Cc3ccccc3)n2n1, the IC50 (read-out: pIC50 (converted)) was 18 µM.
Cc1cc2[nH]c(=O)n(C3CCCCC3)c(=O)n2n1 gave an IC50 (read-out: pIC50 (converted)) of 0.32 µM.
Compound CCCC/N=c1/sc(=O)[nH]c2cc(C)nn12 has an IC50 (read-out: pIC50 (converted)) of 0.57 µM.
Cc1onc(C(=O)NC(C)(C)C)c1C(=O)O gave an IC50 (read-out: IC50) of 290 µM.
Compound S=c1sc(NC2CCCCC2)nc2[nH]ncc12 has an IC50 (read-out: IC50) of 0.64 µM.
For CCCCNc1nc2[nH]ncc2c(=O)s1, the IC50 (read-out: IC50) was 211 µM.
For Cc1c(C(=O)O)c(C(=O)NC(C)(C)C)nn1-c1ccccc1, the IC50 (read-out: IC50) was 7600 µM.
FC(F)(F)c1cccc(Nc2nc3[nH]ncc3c(=S)s2)c1 showed an IC50 (read-out: IC50) of 2.78 µM.
Compound Cc1c(C(=O)O)c(C(=O)NC(C)(C)C)nn1-c1ccc(Cl)cc1 has an IC50 (read-out: IC50) of 950 µM.
For O=c1sc(Nc2cccc(C(F)(F)F)c2)nc2[nH]ncc12, the IC50 (read-out: IC50) was 33.2 µM.
Work on Cc1c(C(=O)O)c(C(=O)NC2CC2)nn1-c1c(Cl)cc(C(F)(F)F)cc1Cl yielded an IC50 (read-out: IC50) of 12200 µM.
In the case of S=c1sc(NCc2ccccc2)nc2[nH]ncc12, the IC50 (read-out: IC50) is reported as 2.84 µM.
Compound O=c1sc(Nc2ccc(Br)cc2)nc2[nH]ncc12 has an IC50 (read-out: IC50) of 28.5 µM.
Cc1c(C(=O)O)c(C(=O)NC(C)(C)C)nn1C was tested, and the IC50 (read-out: IC50) was 670 µM.
For Cc1c(C(=O)O)c(C(=O)NC2CC2)nn1-c1ccccc1, the IC50 (read-out: IC50) was 22500 µM.
O=c1sc(Nc2ccc([N+](=O)[O-])cc2)nc2[nH]ncc12 gave an IC50 (read-out: IC50) of 1060 µM.
In the case of CN(C)c1nc(=O)n(C2CCCCC2)c(=O)n1C [HEXAZINONE], the IC50 (read-out: pIC50 (converted)) is reported as 0.11 µM.
CN(C)C(=O)Nc1ccc(Cl)c(Cl)c1 [DCMU] gave an IC50 (read-out: pIC50 (converted)) of 0.27 µM.
For Cc1c(C(=O)O)c(C(=O)NC2CC2)nn1-c1ccc(Cl)cc1, the IC50 (read-out: IC50) was 370 µM.
Compound S=c1sc(Nc2cccc(Cl)c2)nc2[nH]ncc12 has an IC50 (read-out: IC50) of 15.3 µM.
With Cc1[nH]nc(C(=O)NC2CC2)c1C(=O)O the pIC50 was < 1 and the IC50 (read-out: IC50) was > 100000 µM.
CCC(C)n1c(=O)[nH]c2cc(C)nn2c1=O (configuration not stated) was tested, and the IC50 (read-out: pIC50 (converted)) was 2.6 µM.
S=c1sc(Nc2ccc(Br)cc2)nc2[nH]ncc12 gave an IC50 (read-out: IC50) of 6.06 µM.
Compound O=c1sc(Nc2ccccc2Cl)nc2[nH]ncc12 has an IC50 (read-out: IC50) of 47.8 µM.
For CCNc1nc2[nH]ncc2c(=O)s1, the IC50 (read-out: IC50) was 335 µM.
With Cc1c(C(=O)O)c(C(=O)NC(C)(C)C)nn1C(C)(C)C the pIC50 was < 1 and the IC50 (read-out: IC50) was > 100000 µM.
Compound Cc1cc2[nH]c(=O)n(Cc3ccccc3)c(=O)n2n1 has an IC50 (read-out: pIC50 (converted)) of 42 µM.
In the case of CCCCNc1nc2[nH]ncc2c(=S)s1, the IC50 (read-out: IC50) is reported as 2.67 µM.
O=c1[nH]c2c(c(=O)n1C1CCCCC1)CCC2 [LENACIL] gave an IC50 (read-out: pIC50 (converted)) of 0.08 µM.
For CCCCn1c(=O)[nH]c2cc(C)nn2c1=O, the IC50 (read-out: pIC50 (converted)) was 6.61 µM.
Compound Cc1cc2[nH]c(=O)n(-c3ccccc3)c(=O)n2n1 has an IC50 (read-out: pIC50 (converted)) of 169 µM.
S=c1sc(Nc2ccc(Cl)cc2)nc2[nH]ncc12 gave an IC50 (read-out: IC50) of 21.3 µM.
Work on CCn1c(=O)[nH]c2cc(C)nn2c1=O yielded an IC50 (read-out: pIC50 (converted)) of 32 µM.
For Cc1onc(C(=O)NC2CC2)c1C(=O)O, the IC50 (read-out: IC50) was 100 µM.
With Cc1c(C(=O)O)c(C(=O)NC(C)(C)C)nn1-c1c(Cl)cc(C(F)(F)F)cc1Cl the IC50 (read-out: IC50) was 1040 µM.
Cc1c(C(=O)O)c(C(=O)NC2CC2)nn1C(C)(C)C gave an IC50 (read-out: IC50) of 68000 µM.
O=c1sc(NC2CCCCC2)nc2[nH]ncc12 was tested, and the IC50 (read-out: IC50) was 66.5 µM.
Compound O=c1sc(NCc2ccccc2)nc2[nH]ncc12 has an IC50 (read-out: IC50) of 10.8 µM.
